Values of other authors in patent publication US6432422B1, “Creams containing vitamin D3 derivatives” (Chugai Seiyaku Kabushiki Kaisha, priority 1997, dated 2002).

Assays:
[1] = organic solvents such as ethanol and chloroform

- stability in aqueous solutions (aqueous solutions): unstable in aqueous solutions
- stability in base materials (base materials such as petrolatum): very high stability
- solubility in organic solvents [1]: highly soluble
- stability in organic solvents [1]: dramatically improved stability
- solubility in water (water): scarcely soluble in water
Structure (SMILES): C=C1/C(=C\C=C2/CCC[C@]3(C)[C@@H]([C@H](C)OCCC(C)(C)O)CC[C@@H]23)C[C@@H](O)C[C@@H]1O [Maxacalcitol, 1α,3β-dihydroxy-20α-(3-hydroxy-3-methylbutyloxy)-9,10-seco-5,7,10(19)-pregnatriene]
- effects on epidermal cells (epidermal cells): epidermal cell growth-inhibiting and differentiation-inducing effects
